Where a name gives a salt, the structure may show the parent alone.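 These data come from cells grown in 96-well plates and exposed to compound for 48 hours at five concentrations. Abbreviation: GI50, concentration required for 50% inhibition of growth.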 Active and inactive are the calls of the source. Cut-off read from the data, not from the text of the source: active = GI50 up to about 1.1 µM and inactive = higher.
Key:
Assay in all cases: growth of human tumour cells (NCI), 48 h
SK-MEL-2 = system: SK-MEL-2
SR = system: SR
MCF7 = system: MCF7
UACC-62 = system: UACC-62
IGROV-1 = system: IGROV-1
UO-31 = system: UO-31
MDA-MB-435 = system: MDA-MB-435
NCI-H460 = system: NCI-H460
NCI-H522 = system: NCI-H522
SK-MEL-5 = system: SK-MEL-5
U-251 = system: U-251
EKVX = system: EKVX
OVCAR-4 = system: OVCAR-4
HCT-116 = system: HCT-116
SNB-19 = system: SNB-19
ACHN = system: ACHN
SF-295 = system: SF-295
786-0 = system: 786-0
TK-10 = system: TK-10
RXF 393 = system: RXF 393

Measured: GI50

COc1cc(C2SCC(=O)N2c2ccc(Oc3ccc(Cl)cc3)c(Cl)c2)cc(OC)c1OC (stereo not given)
inactive: SK-MEL-2 17.1 µM | SR 22 µM | MCF7 36.3 µM | UACC-62 16 µM | IGROV-1 15.6 µM | UO-31 17.6 µM | MDA-MB-435 16 µM | NCI-H460 43.4 µM | NCI-H522 12 µM | SK-MEL-5 17.9 µM | U-251 39.5 µM | EKVX 23.6 µM | OVCAR-4 42.7 µM | HCT-116 18.7 µM | SNB-19 34.2 µM | ACHN 30.9 µM | SF-295 16.4 µM | 786-0 18.3 µM | TK-10 17.6 µM

CC(=O)c1c2c(cc3c1CC1(C3)Cc3cc4c(c(C(=O)O)c3C1)CCCC4)CCCC2.CC(N)c1ccccc1 (stereo not given)
inactive: SK-MEL-2 28.1 µM | SR 20.3 µM | MCF7 29.1 µM | UACC-62 30.7 µM | IGROV-1 34.8 µM | UO-31 18.6 µM | MDA-MB-435 54.8 µM | NCI-H460 20.2 µM | NCI-H522 46.1 µM | SK-MEL-5 22.9 µM | U-251 26.1 µM | EKVX 26.4 µM | OVCAR-4 37 µM | HCT-116 25.1 µM | SNB-19 46.5 µM | ACHN 28.8 µM | SF-295 33.7 µM | 786-0 34.4 µM | TK-10 37.5 µM

N#CC1=C(S)N(C2OC(CO)C(O)C(O)C2O)C(c2ccccc2)=CC1c1ccco1 (stereo not given)
inactive: SK-MEL-2 59 µM | SR 36.9 µM | MCF7 62.2 µM | UACC-62 16.3 µM | IGROV-1 > 100 µM | UO-31 82.2 µM | MDA-MB-435 > 100 µM | NCI-H460 28.2 µM | RXF 393 44 µM | NCI-H522 35.7 µM | SK-MEL-5 26.9 µM | U-251 19.8 µM | OVCAR-4 > 100 µM | HCT-116 21.3 µM | SNB-19 69.5 µM | ACHN > 10 µM | SF-295 24.6 µM | 786-0 38 µM | TK-10 44.1 µM

CC(=O)OCC1OC(n2c3c(cc(C#N)c2=O)CCCCCC3)C(OC(C)=O)C(OC(C)=O)C1OC(C)=O (stereo not given)
inactive: SK-MEL-2 > 100 µM | SR 96.6 µM | MCF7 > 100 µM | UACC-62 > 100 µM | IGROV-1 > 100 µM | UO-31 > 100 µM | MDA-MB-435 > 100 µM | NCI-H460 > 100 µM | RXF 393 > 100 µM | NCI-H522 > 100 µM | SK-MEL-5 > 100 µM | U-251 > 100 µM | OVCAR-4 > 100 µM | HCT-116 > 100 µM | SNB-19 > 100 µM | ACHN > 100 µM | SF-295 > 100 µM | 786-0 > 100 µM | TK-10 > 100 µM

NC(=O)c1cc2ccccc2o/c1=N/O
inactive: SK-MEL-2 > 100 µM | SR > 100 µM | MCF7 29.2 µM | UACC-62 35.8 µM | IGROV-1 66.1 µM | UO-31 38.7 µM | MDA-MB-435 54.1 µM | NCI-H460 > 100 µM | RXF 393 > 100 µM | NCI-H522 61.4 µM | SK-MEL-5 > 100 µM | U-251 > 100 µM | EKVX 32.2 µM | HCT-116 > 100 µM | SNB-19 > 100 µM | ACHN > 100 µM | SF-295 > 100 µM | 786-0 > 100 µM | TK-10 > 100 µM

CC(=O)N1N=C(c2ccc3ccccc3c2O)CC1C(=O)c1ccco1 (stereo not given)
inactive: SK-MEL-2 18.7 µM | SR 3.78 µM | MCF7 21.4 µM | UACC-62 17 µM | IGROV-1 12.7 µM | UO-31 23.1 µM | MDA-MB-435 14.7 µM | NCI-H460 15.3 µM | RXF 393 32.4 µM | NCI-H522 17.9 µM | SK-MEL-5 25 µM | U-251 27.7 µM | OVCAR-4 17.5 µM | HCT-116 28.6 µM | ACHN 19.2 µM | SF-295 24 µM | 786-0 45 µM | TK-10 30.3 µM

CCOP(=O)(OCC)/C(C#N)=C/c1cccn1C(C)C
inactive: SK-MEL-2 > 100 µM | SR > 100 µM | MCF7 > 10 µM | UACC-62 > 100 µM | IGROV-1 > 100 µM | UO-31 > 100 µM | MDA-MB-435 > 100 µM | NCI-H460 > 100 µM | RXF 393 > 100 µM | NCI-H522 > 100 µM | SK-MEL-5 > 100 µM | U-251 > 100 µM | EKVX > 100 µM | HCT-116 > 100 µM | SNB-19 > 100 µM | ACHN > 100 µM | SF-295 > 100 µM | 786-0 > 100 µM | TK-10 > 100 µM

c1ccc(CN2C3C4N(Cc5ccccc5)C2C2N(Cc5ccccc5)C(C(N2Cc2ccccc2)N4Cc2ccccc2)N3Cc2ccccc2)cc1
inactive: SK-MEL-2 > 100 µM | SR > 100 µM | MCF7 > 100 µM | UACC-62 > 100 µM | IGROV-1 > 100 µM | MDA-MB-435 > 100 µM | RXF 393 > 100 µM | NCI-H522 > 100 µM | SK-MEL-5 > 100 µM | U-251 > 100 µM | EKVX > 100 µM | HCT-116 > 100 µM | ACHN > 100 µM | SF-295 > 100 µM | 786-0 > 100 µM | TK-10 > 100 µM

Cc1ccc2c(c1)NC(=O)CC(c1ccccc1)=N2
inactive: SK-MEL-2 > 100 µM | SR 23.7 µM | MCF7 71.8 µM | UACC-62 > 100 µM | IGROV-1 > 100 µM | UO-31 63.1 µM | MDA-MB-435 31 µM | NCI-H460 > 100 µM | NCI-H522 45.6 µM | SK-MEL-5 40 µM | U-251 > 100 µM | EKVX > 100 µM | OVCAR-4 > 100 µM | HCT-116 61.5 µM | SNB-19 > 100 µM | ACHN > 100 µM | SF-295 > 100 µM | 786-0 > 100 µM | TK-10 > 100 µM

N[C@@H](Cc1ccc(N(CCCl)CCCl)cc1)C(=O)O [MELPHALAN HYDROCHLORIDE]
inactive: SK-MEL-2 56.2 µM | SR 1.71 µM | MCF7 11.1 µM | UACC-62 11.2 µM | UO-31 48 µM | MDA-MB-435 41.9 µM | NCI-H460 7.35 µM | RXF 393 28.9 µM | NCI-H522 25.2 µM | SK-MEL-5 38.3 µM | U-251 27 µM | OVCAR-4 40 µM | HCT-116 42.1 µM | SNB-19 51.6 µM | ACHN 9.57 µM | SF-295 20 µM | 786-0 17.4 µM | TK-10 67.1 µM

Reference: ChEMBL document CHEMBL1201862, “PubChem BioAssay data set” (2004)
